This is an account of results in US11459329B2, “Imidazopyridazine and imidazopyridine compounds and uses thereof” (Incyte Corporation, priority 2018, dated 2022).

The target of this experiment is ALK2 (aa 147-end) (Homo sapiens (Human), UniProt Q04771). Put plainly: ALK2 HTRF Assay. In kind it is biochemical. The method, then: The enzymatic assays were conducted in white 384-well polystyrene plates in a final volume of 8 μL. The inhibitors were serially diluted in DMSO and added to the plate wells prior to addition of the other reaction components. The assays were carried out at 25° C. in the assay buffer (50 mM HEPES, pH 7.0, 10% Glycerol, 0.01% Brij50, 10 mM MgCl2, 1 mM EGTA, 5 mM DTT, and 0.01% BSA), containing 50 nM LANCE Ultra ULight™-DNA Topoisomerase 2-alpha peptide (Perkin Elmer TRF0130), and 3 μM ATP. The final concentration of DMSO in the assay was 1% and the enzyme concentration was 0.5 nM for ALK2. […] […] IC50 determination was performed by fitting percent control activity versus the log of the inhibitor concentration using the IDBS XLFit and GraphPad Prism 5.0 software.
(Time-resolved FRET reads energy transfer from a long-lived donor to a nearby acceptor.)

[1] abbreviates: 3 μM ATP, 0.5 nM ALK2, 2 hr, 25° C., read-out: ALK2 IC50.

Read-outs that look alike come from different tables or passages of the source.

ALK2 (aa 147-end), sequence (Q04771 147-509): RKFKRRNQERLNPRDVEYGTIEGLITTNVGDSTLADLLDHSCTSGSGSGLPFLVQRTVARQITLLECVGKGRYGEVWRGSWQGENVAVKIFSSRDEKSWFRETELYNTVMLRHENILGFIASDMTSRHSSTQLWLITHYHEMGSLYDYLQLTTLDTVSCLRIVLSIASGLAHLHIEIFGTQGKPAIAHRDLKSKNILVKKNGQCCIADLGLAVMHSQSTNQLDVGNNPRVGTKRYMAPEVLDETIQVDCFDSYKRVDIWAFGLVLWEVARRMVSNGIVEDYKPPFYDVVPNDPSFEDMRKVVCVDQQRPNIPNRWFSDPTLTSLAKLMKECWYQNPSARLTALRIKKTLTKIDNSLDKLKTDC

Broadly, the IC50 is the concentration that inhibits the measured activity by half. Take `Cc1nn2c(-c3ccc(C#N)c4ncccc34)cnc2cc1-c1ccc(N2CCNCC2)cc1` [Example 28, 5-(6-methyl-7-(4-(piperazin-1-yl)phenyl)imidazo[1,2-b]pyridazin-3-yl)quinoline-8-carbonitrile]: the IC50 under setting [1] fell in the range of 5 to 100 nM.
On the same count and under the same terms, as for `CCn1cnc(-c2ccc3c(-c4cnc5cc(-c6ccc(CN7CC(F)(F)C7)cc6)c(C)nn45)ccnc3n2)c1` [Example 57], the figure is 1 to 5 nM; as for `Cc1nn2c(-c3ccnc4cc(Nc5cccnc5)ccc34)cnc2cc1-c1ccc(N2CCNCC2)cc1` [Example 22, 4-(6-methyl-7-(4-(piperazin-1-yl)phenyl)imidazo[1,2-b]pyridazin-3-yl)-N-(pyridin-3-yl)quinolin-7-amine], < 1 nM.
The same measure, in the same setting: then `Cc1nn2c(-c3ccnc4cc(C(=O)N5CCN(C)CC5)ccc34)cnc2cc1-c1ccc(N2CCNCC2)cc1` [Example 17, (4-(6-methyl-7-(4-(piperazin-1-yl)phenyl)imidazo[1,2-b]pyridazin-3-yl)quinolin-7-yl)(4-methylpiperazin-1-yl)methanone], with > 100 nM.
Same read-out and setting: then `COC(=O)c1nn2c(-c3ccnc4ccccc34)cnc2cc1-c1ccc(N2CCNCC2)cc1` [Example 2, Methyl 7-(4-(piperazin-1-yl)phenyl)-3-(quinolin-4-yl)imidazo[1,2-b]pyridazine-6-carboxylate], with < 1 nM; and `Cc1nn2c(-c3ccnc4nc(-c5ncccn5)ccc34)cnc2cc1-c1cnn(C(C)C)c1` [Example 40, 5-(7-(1-Isopropyl-1H-pyrazol-4-yl)-6-methylimidazo[1,2-b]pyridazin-3-yl)-2-(pyrimidin-2-yl)-1,8-naphthyridine], with < 1 nM.
Consider `Cc1nn2c(-c3ccnc4nc(-c5cnccn5)ccc34)cnc2cc1-c1ccc(CN2CCC2)cc1` [Example 42, 5-(7-(4-(Azetidin-1-ylmethyl)phenyl)-6-methylimidazo[1,2-b]pyridazin-3-yl)-2-(pyrazin-2-yl)-1,8-naphthyridine], for which the IC50 under setting [1] fell in the range of 1 to 5 nM.
On the same count and under the same terms, as for `N#Cc1nn2c(-c3ccnc4ccccc34)cnc2cc1-c1ccc(N2CCNCC2)cc1` [Example 6, 7-(4-(piperazin-1-yl)phenyl)-3-(quinolin-4-yl)imidazo[1,2-b]pyridazine-6-carbonitrile], the figure is < 1 nM; as for `CCn1cnc(-c2ccc3c(-c4cnc5cc(-c6ccc(CN(C)C)cc6)c(C)nn45)ccnc3n2)c1` [Example 54, 1-(4-(3-(7-(1-Ethyl-1H-imidazol-4-yl)-1,8-naphthyridin-4-yl)-6-methylimidazo[1,2-b]pyridazin-7-yl)phenyl)-N,N-dimethylmethanamine], < 1 nM.
Same read-out and setting: then `Cc1nn2c(-c3ccnc4c3OCCO4)cnc2cc1-c1ccc(N2CCNCC2)cc1` [Example 29, 8-(6-methyl-7-(4-(piperazin-1-yl)phenyl)imidazo[1,2-b]pyridazin-3-yl)-2,3-dihydro-[1,4]dioxino[2,3-b]pyridine], with < 1 nM; and `CCn1cnc(-c2ccc3c(-c4cnc5cc(-c6ccc(CN7CCC7)cc6)c(C)nn45)ccnc3n2)c1` [Example 56, 5-(7-(4-(Azetidin-1-ylmethyl)phenyl)-6-methylimidazo[1,2-b]pyridazin-3-yl)-2-(1-ethyl-1H-imidazol-4-yl)-1,8-naphthyridine], with 1 to 5 nM.
The compound `Cc1nn2c(-c3ccnc4cc(N5CCOCC5)ccc34)cnc2cc1-c1ccc(N2CCNCC2)cc1` [Example 20, 4-(4-(6-methyl-7-(4-(piperazin-1-yl)phenyl)imidazo[1,2-b]pyridazin-3-yl)quinolin-7-yl)morpholine] yielded an IC50 of 1 to 5 nM.
On to `Cc1cnn(-c2ccc3c(-c4cnc5cc(-c6ccc(CN7CCC(O)CC7)cc6)c(C)nn45)ccnc3n2)n1` [Example 67, 1-(4-(6-methyl-3-(7-(4-methyl-2H-1,2,3-triazol-2-yl)-1,8-naphthyridin-4-yl)imidazo[1,2-b]pyridazin-7-yl)benzyl)piperidin-4-ol], for which the IC50 under setting [1] was < 1 nM.
